Experimental data as given in US6395787B1, “Ocular hypotensive lipids” (Allergan Sales, Inc., priority 2000, dated 2002).
pEC50: −log10 of the molar value.

What was measured:
[1] = target: recombinant feline FP receptor (Felis catus, UniProt A0ABI7XJ69); experiment: Ca2+ signal in HEK-293 cells stably transfected with recombinant feline FP receptor; type: cell-based, cat; conditions: HEK-293 cells, recombinant feline FP receptor; read-out: E.C.50, Ca2+ signal
Protocol: (§1) Human CRL 1497 cells were plated in culture flasks and fed Dulbecco's modified Eagle's medium (DMEM) containing 10% fetal calf serum, 2 mM 1-glutamine, and 0.05 mg/ml gentacin (all purchased from Gibco, Grand Island, N.Y.). Cell cultures were maintained in a humidified atmosphere of 95% air, 5% CO2 and grown to confluency. Cells were removed from the culture flasks by approximately 1 min treatment with trypsin 0.05%/0.53 mM EDTA in Hanks Balanced Salt Solution (HBSS, Gibco, Grand Island, N.Y.) at 37° C. Proteolytic activity was arrested by adding 5 ml of 10% fetal bovine serum in DMEM. The cells were consecutively washed in Hank's BSS and medium containing 140 mM NaCl, […], 1 mM MgCl2, 1.5 mM CaCl2, 10 mM HEPES: TRIS, 5 mM glucose, 5 mM Na pyruvate, 0.1% bovine serum albumin at pH 7.4: Centrifugation for the washes was performed for 15 minutes at 200 g at room temperature. Cells were counted, resuspended in the above medium and incubated with 2×10^−6 M Fura 2/acetoxymethyl ester in a shaking water bath for 30 minutes at 37° C. The cells were subsequently washed in medium as above and resuspended at a concentration of 2×10^6 cells ml^−1. Aliquots of 0.5 ml cell suspension were then added to autocap microtubes to provide 10^6 cells per experimental determination of intracellular free Ca^2+ concentration ([Ca^2+]i).
(§2) Fluorescence was measured in a Perkin-Elmer LS-5 fluorescence spectrophotometer at excitation and emission wavelengths of 340 and 492 nm, respectively, with both slits at 10 nm. For each experimental determination 10^6 cells were washed (200×g for 5 min) and suspended in a 2 ml cuvette with buffer containing 120 mM NaCl, 6 mM KCl, 1 mM MgSO4, 1.5 mM CaCl2, 20 mM HEPES, 1 mg ml^−1 glucose and 1 mg ml^−1 Na pyruvate. Stirring was achieved by an overhead-mounted, paddle stirrer with the temperature maintained at 37° C. The cells were lysed with digitonin (10 μl of 100 mg ml^−1 DMSO) to obtain fmax. EGTA (100 mM) and sufficient 10N NaOH to adjust the pH to 8.5 were then successively added to obtain fmin.
HEK-293 cells were grown in DMEM with 10% fetal bovine serum (FBS), 250 μg ml^−1 G418 (Life Technologies) and 200 μg ml^−1 gentamicin or penicillin/streptomycin. […] For transfection, the cells were grown to 50-60% confluency on 10 cm plates. The plasmid pCEP4 incorporating cDNA inserts for the human FP receptor (20 μg) was added to 500 μl of 250 mM CaCl2. HEPES buffered saline×2 (2×HBSS, 280 mM NaCl, 20 mM HEPES acid, 1.5 mM Na2 HPO4, pH 7.05-7.12) was then added dropwise to a […], with continuous vortexing at room temperature. After 30 min, 9 ml DMEM were added to the mixture. The DNA/DMEM/calcium phosphate mixture was then added to the cells, which had been previously rinsed with 10 ml phosphate buffered saline (PBS). The cells were then incubated for 5 h. at 37° C. in humidified 95% air/5% CO2. The calcium phosphate solution was then removed and the cells were treated with 10% glycerol in DMEM for 2 min. The glycerol solution was then replaced by DMEM with 10% fetal bovine serum (FBS). The cells were incubated overnight and the medium was replaced by DMEM/10% FBS containing 250 μg ml^−1 G418 and penicillin/streptomycin. The following day hygromycin B was added to a final concentration of 200 μg ml^−1.
Ten days after transfection, hygromycin B resistant clones were individually selected and transferred to a separate well on a 24 well plate. […]

[2] = system: rabbit jugular vein segment; experiment: Vasorelaxation of histamine precontracted rabbit jugular vein segment
Protocol: Smooth muscle tension of isolated tissues was measured isometrically with force displacement transducers (Grass FT-03) and recorded on Grass Polygraphs (Models 7G and 79E). The organ baths contained Krebs solution maintained at 37° C. and gassed with 95% 02/5% CO2 to give a pH of 7.4. The Krebs solution had the following composition (mM): NaCl, 118.0; KCl, 4.7; KH2PO4, 1.2; CaCl2, 1.9; MgSO4, 1.18; NaHCO3, 25.0; glucose, 11.7; indomethacin, 0.001.
New Zealand albino rabbit of either sex, weighing 2-4 kg, were injected with 1000 U heparin into the marginal ear vein and then sacrificed by CO2 gas. The external jugular veins were cleared of fat and adherent connective tissue and removed. The veins were transected and each ring of 3-4 mm length was suspended between two metal hooks in a jacketed organ bath. The tissues were equilibrated for 1 hr under 0.75 g tension, which was readjusted as the tissues relaxed. Single doses of histamine, 10^−5 M then 2-3×10^−6 M, with washing after each dose, were given to contract the tissue and establish responsiveness. The TP-receptor antagonist SQ29548, (Ogletree et al. (1985) J. Pharmacol. Exp. Ther. 234 435-441) at (10^−6 M), was applied for 5 min and then histamine 2-3×10^−6 M was added to elicit the contractile response. After 30 min of pretreatment with the histamine, the relaxant response was tested by adding cumulative doses of the test compounds with 10^−8 M to 10^−7 M PGE2 at the end of each dose-response curve as a reference. A recovery period of 30-50 min was allowed after wash-out of the tissues. Relaxant activity was calculated as % of the control tone elicited by histamine.

human FP receptor = human FP receptor (Homo sapiens, UniProt P43088); experiment: Ca2+ signal in CRL 1497 cells; type: cell-based; set-up: endogenous in cells; host or cells: CRL 1497 human dermal fibroblasts; Δ[Ca^2+]i mean χ ± SEM: unit not given here; conditions: CRL 1497 cells, n = 4
human FP receptor, sequence (P43088 whole entry): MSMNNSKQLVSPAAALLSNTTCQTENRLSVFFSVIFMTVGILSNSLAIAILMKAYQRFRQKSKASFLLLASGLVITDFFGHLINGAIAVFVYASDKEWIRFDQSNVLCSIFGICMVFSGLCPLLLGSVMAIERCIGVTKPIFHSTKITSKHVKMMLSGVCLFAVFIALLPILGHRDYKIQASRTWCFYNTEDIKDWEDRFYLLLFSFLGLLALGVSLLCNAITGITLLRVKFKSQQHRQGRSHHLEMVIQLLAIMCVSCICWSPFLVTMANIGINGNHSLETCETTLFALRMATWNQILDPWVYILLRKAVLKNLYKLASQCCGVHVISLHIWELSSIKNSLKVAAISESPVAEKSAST
Protocol: as §1, §2

intraocular pressure = conditions: prior art research of the assignee; cited from earlier work

recombinant feline FP receptor, sequence (A0ABI7XJ69 entry or part of it): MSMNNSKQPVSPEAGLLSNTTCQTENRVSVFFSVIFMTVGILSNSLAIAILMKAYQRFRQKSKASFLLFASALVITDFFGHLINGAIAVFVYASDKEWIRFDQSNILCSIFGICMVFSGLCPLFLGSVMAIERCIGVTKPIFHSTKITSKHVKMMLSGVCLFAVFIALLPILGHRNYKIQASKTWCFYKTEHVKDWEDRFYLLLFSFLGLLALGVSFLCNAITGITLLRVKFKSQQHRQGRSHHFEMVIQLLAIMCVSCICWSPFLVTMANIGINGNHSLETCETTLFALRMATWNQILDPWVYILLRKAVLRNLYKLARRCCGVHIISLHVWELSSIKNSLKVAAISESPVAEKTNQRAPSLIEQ

Structure (SMILES): CCCCC[C@H](O)/C=C/[C@@H]1[C@@H](C/C=C\CCCC(=O)O)[C@@H](O)C[C@H]1O [PGF2α, reference compound]
- pEC50 [1]: 7.85
- pEC50 ([2]; Oryctolagus cuniculus, histamine precontracted, read-out: E.C.50, vasorelaxation of the precontracted rabbit jugular vein segment): 8.28
- endothelium dependent vasorelaxation ([2]; histamine precontracted rabbit jugular vein segment): marked vasorelaxation
- Δ[Ca^2+]i mean χ ± SEM (human FP receptor; 10^−5 M): 136.7 ± 11.2
- Δ[Ca^2+]i mean χ ± SEM (human FP receptor; 10^−6 M): 127.4 ± 7.6
- Δ[Ca^2+]i mean χ ± SEM (human FP receptor; 10^−7 M): 124.1 ± 6.5
- Δ[Ca^2+]i mean χ ± SEM (human FP receptor; 10^−8 M): 47.7 ± 9.4
- Δ[Ca^2+]i mean χ ± SEM (human FP receptor; 10^−9 M): 5.6 ± 2.4

Structure (SMILES): CCCCCC(/C=C/[C@H]1C(O)CC(O)[C@@H]1C/C=C\CCCC(N)=O)OC (stereo partly shown) [prior art compound no. 2]
- intraocular hypotensive activity (intraocular pressure): strong intraocular hypotensive activity

Structure (SMILES): CCNC(=O)CCC/C=C\C[C@@H]1[C@@H](/C=C/[C@@H](O)CCc2ccccc2)[C@H](O)C[C@@H]1O [prior art compound no. 1]
- intraocular hypotensive activity (intraocular pressure): strong intraocular hypotensive activity
